Series [1] has as its system 15-PGDH luciferase fusion construct in LS174T reporter cell line. The series is described as follows: 15-PGDH-luciferase fusion gene reporter induction, LS174T cells. Format: cell-based. The note with it: Homo sapiens.
Series [2] has as its system A549 cells. The series is described as follows: Cellular toxicity on A549 cells (CellTiter-Glo). The series is classed as cell-based. As to conditions: for Decrease Cell viability in A549 cell (%): A549 cells. Set-up: Decrease Cell viability in A549 cell (%): concentration or dose not given beside the values. (In general: ATP-based viability assays read luminescence as a measure of living cells.)

The test system of series [3] is 15-PGDH-luciferase fusion reporter in V9m, LS174T and V503 cells. Briefly: 15-PGDH-luciferase fusion gene reporter induction, stated for the three cell line backgrounds together. Format: cell-based. As to conditions: for induction of 15-PGDH-luciferase reporter in cell lines (SW054384 analogues): […] and […]; for luciferase activity of cells expressing 15-PGDH luciferase fusion construct: V9m, LS174T, V503. For orientation: Reporter assays use an easily measured gene product as a stand-in for the process of interest.

The test system of series [4] is 15-PGDH luciferase fusion construct in Vaco503 reporter cell line. The series is described as follows: 15-PGDH-luciferase fusion gene reporter induction, V503 cells. Format: cell-based. The note with it: read-out: V503-3H9-7 reporter activity, % ([…]), V503 reporter cells, […] compound, % induction of luciferase activity over basal level.
The test system of series [5] is A549 cells. The series is described as follows: PGE2 levels in the medium of IL1-beta stimulated A549 cells.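 On all read-outs here: PGE2 in the collected culture medium quantified by enzyme immunoassay (ELISA), with data drawn from three independent experiments.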 The series is classed as cell-based. The note with it: for Decrease PGE-2 (IL-1beta-A549, %): media of IL-1beta stimulated A549 cells.
In series [6] the test system is 15-PGDH luciferase fusion construct in V9m reporter cell line. The series is described as follows: 15-PGDH-luciferase fusion gene reporter induction, V9m cells. The series is classed as cell-based. As to conditions: % induction of luciferase activity over basal level.
For series [7], the target named is T1, 15-PGDH protein (Homo sapiens (Human), UniProt P15428). The series is described as follows: Inhibition of enzymatic activity of recombinant 15-PGDH in vitro (tritium transfer from PGE2 or NADH fluorescence). Format: biochemical.
Series [8] has as its target T1, 15-PGDH protein. Briefly: 15-PGDH protein levels in treated cells (western blot, immuno-fluorescence). The series is classed as cell-based. As to conditions: […] compound for 48 hours; colon cell lines. (In general: A western blot detects proteins with antibodies after separation by electrophoresis.)
Series [9] is described as follows: Metabolic stability with murine liver S9. The note with it: for half-life: mouse, liver S9 fraction, Murine S9 fraction, Phase I cofactors, 0-240 minutes. Format: in vitro ADME. As for the experimental part: SW054384 (2 mM in DMSO) was incubated with Murine S9 (Lot KWB) fraction and Phase I (NADPH Regenerating System) cofactors for 0-240 minutes. Reactions were quenched with a 1 mL (1:1) of MeOH/(+)IS/0.2% Formic Acid, vortexed for 15 seconds, incubated at RT for 10 minutes and spun for 5 minutes at 2400 rpms. […] Supernatant (800 μL) was transferred to an HPLC vial (w/out insert) and analyzed by HPLC/MS. A: dH2O+0.1% FA B: MeOH+0.1% FA
SW125991 (2 mM in DMSO) was incubated with Murine S9 (Lot KWB) fraction and Phase I (NADPH Regenerating System) cofactors for 0-240 minutes. Reactions were quenched with 1 mL (1:1) of methanol containing 0.2% formic acid and 100 ng/ml IS (IS final conc.=50 ng/ml). Samples were vortexed for 15 seconds, incubated at RT for 10 minutes and spun for 5 minutes at 2400 rpm. […] Supernatant (800 μL) was transferred to an HPLC vial (w/out insert). Analyzed by Qtrap 3200 mass spectrometer.

In a further series the test system is 15-PGDH mRNA. The series is described as follows: 15-PGDH mRNA levels by real-time PCR. As to conditions: treated colon cancer cell lines. The series is classed as cell-based.
The target of series [10] is T1, 15-PGDH protein. Briefly: Shift of melting temperature of recombinant 15-PGDH (SYPRO Orange). The series is classed as binding. As to conditions: FIG. 14.
Series [11] relates to wild-type mouse bone marrow. Briefly: Hematopoietic colonies from bone marrow treated ex vivo. The series is classed as cell-based. As to conditions: 1 uM, ex vivo on ice 2 hours. From the text: Treated marrow is again then plated into methylcellulose for counting of hematopoietic colonies.
The mark [12] stands for this setting: read-out: Ls174T-SC1 reporter activity, % ([…]), LS174T reporter cells, […] compound, % induction of luciferase activity over basal level, read-out: Ls174T-SC1 reporter activity, % (2.5 μM).
The mark [13] stands for this setting: read-out: Ls174T-SC1 reporter activity, % ([…]), LS174T reporter cells, […] compound, % induction of luciferase activity over basal level, read-out: Ls174T-SC1 reporter activity, % (7.5 μM).
Where [14] appears, read: read-out: V503-3H9-7 reporter activity, % (2.5 μM).
Where [15] appears, read: read-out: V503-3H9-7 reporter activity, % (7.5 μM).
[16] abbreviates: read-out: V9M-SC3 Reporter activity ([…]) (%), V9m reporter cells, […] compound, read-out: V9M-SC3 Reporter activity (2.5 μM) (%).
Where [17] appears, read: read-out: V9M-SC3 Reporter activity ([…]), %, V9m reporter cells, […] compound, read-out: V9M-SC3 Reporter activity (7.5 μM), %.

Results on nine molecules are retold here after patent US9790233B2, “Compositions and methods of modulating 15-PGDH activity” (CASE WESTERN RESERVE UNIVERSITY, priority 2012, dated 2017).

Each structure is given as a SMILES string. Read-outs that look alike come from different tables or passages of the source.

T1 sequence (P15428 whole entry): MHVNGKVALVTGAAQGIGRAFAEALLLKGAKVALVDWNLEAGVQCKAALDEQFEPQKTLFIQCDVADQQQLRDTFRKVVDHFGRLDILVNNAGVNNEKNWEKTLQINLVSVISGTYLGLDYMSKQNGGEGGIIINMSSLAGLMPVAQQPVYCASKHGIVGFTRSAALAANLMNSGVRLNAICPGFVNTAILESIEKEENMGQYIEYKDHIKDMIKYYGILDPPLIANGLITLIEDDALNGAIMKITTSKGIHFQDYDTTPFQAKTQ

With `COc1ccc(OC)c(N(CC(=O)Nc2cc(C)no2)S(=O)(=O)c2ccccc2)c1` [SW203704], the activation at […] in series [1] (setting [12]) came to 8.64%; in [1] (setting [13]) it was 12.5%; in series [4] (setting [14]), 52.8%; in [4] (setting [15]), 37.8%; in series [6] (setting [16]), 8.71%; in [6] (setting [17]), 8.04%. For the same molecule, in the series with A549 cells [2], the “Decrease Cell viability in A549 cell (%)” value is recorded as −2.70%. Moreover, the “induction of 15-PGDH-luciferase reporter in cell lines (SW054384 analogues)” value (“induction … (SW054384 analogues)” below) in [3] was “active in inducing the 15-PGDH-luciferase reporter”. Further, the “Decrease PGE-2 (IL-1beta-A549, %)” value in the series with A549 cells [5] is 22.33%.
The IC50 is the concentration needed to halve the response being measured. In general, half-life refers to the time needed for the level to fall by half in the phase considered. As to `COc1ccc(OC)c(N(CC(=O)Nc2cccnc2)S(=O)(=O)c2ccccc2)c1` [SW054384], the “IC50 higher than that of SW033291” value at 15-PGDH protein [7] is 10,000 fold. The IC50 at 15-PGDH protein [7] (15-PGDH-GST fusion protein, FIG. 11, read-out: IC50) was 5 to 50 µM; on 15-PGDH protein [7] (fluorescent based assay, FIG. 12, read-out: IC50), 11 µM; on 15-PGDH protein [7] (tritium assay, FIG. 12, read-out: IC50) it was 8.4 µM. Moreover, the activation at […] in series [1] (setting [12]) came out at 130%; in [1] (setting [13]), 156%; in [4] (setting [14]) it was 149%; in [4] (setting [15]), 157%; in series [6] (setting [16]), 116%; in series [6] (setting [17]), 148%. Also, the “concentration of maximum reporter activity” value in series [3] (FIG. 1) is 6.25 µM. For the same molecule, the “luciferase activity of cells expressing 15-PGDH luciferase fusion construct” value in series [3] (FIG. 1) is given as “increase luciferase activity”. In addition, the “levels of 15-PGDH protein (western blot)” value on 15-PGDH protein [8] is on record as “increase levels of 15-PGDH protein”. Besides, the half-life in series [9] turned out to be 0.362 h. The “15-PGDH mRNA levels (real-time PCR)” value in the series on 15-PGDH mRNA was “do not in general alter 15-PGDH mRNA levels”. In addition, the “lowering of PGE2 levels in media” value with A549 cells [5] was “show activity in lowering PGE2”. The “PGE2 levels in medium” value in the series on A549 cells [5] (compound added 24 hours before IL1-beta, maintained 26 hours with IL1-beta) is given as “lower level of PGE2 produced”. Also, in the series with A549 cells [5], the “Decrease PGE-2 (IL-1beta-A549, %)” value is recorded as 41.96%. Moreover, at 15-PGDH protein [10], the “direct binding to recombinant 15-PGDH (melting temperature shift)” value is reported as “cannot be demonstrated to bind 15-PGDH”.
Turning to `CCCC[S+]([O-])c1sc2nc(-c3nccs3)ccc2c1N` (stereo not shown) [SW206992, 2-(butylsulfinyl)-6-(thiazol-2-yl)thieno[2,3-b]pyridin-3-amine], in the series on A549 cells [2] (24 hours, concentrations of up to 10 uM), the “effect on CellTitre-Glo levels” value was “No effect on CellTitre-Glo levels”. In addition, the Toxicity in the series on A549 cells [2] (concentration needed to decrease cell numbers in a cell culture assay, Table 3) is above 7.5 µM. Further, the “exposure needed to induce maximal reporter induction” value in series [3] (24 hours, three cell line backgrounds) is recorded as above 1000 nM. Besides, the “Concentration for Full Cell Line Reporter Induction” value in series [3] (maximal induction of reporter, Table 3) is above 1 µM. Also, in the series with A549 cells [5] (IL-1β 16 h, compound 8 h), the “compound concentration at maximal effect on PGE2” value was 2.5 µM.
`O=C(c1ccc2nc(-c3ccccc3)c(-c3ccccc3)nc2c1)N1CCCCC1` [SW145753]: the “luciferase activity of cells expressing 15-PGDH luciferase fusion construct” value in series [3] (FIG. 1) is “increase luciferase activity”. For the same molecule, the “15-PGDH mRNA levels (real-time PCR)” value in the series on 15-PGDH mRNA is “do not in general alter 15-PGDH mRNA levels”. The “PGE2 levels in medium” value in the series with A549 cells [5] (IL1-beta 23 hours, compound added for the last 5 hours) was “clear inhibition of 15-PGDH activity”.
For `COc1ccc(OC)c(N(CC(=O)Nc2csnc2C)S(=O)(=O)c2ccccc2)c1` [SW203703], the activation at […] turned out to be 85.8% in series [1] (setting [12]); 80.2% in series [1] (setting [13]); 143% in [4] (setting [14]); 78% in series [4] (setting [15]); 108% in [6] (setting [16]); 106% in series [6] (setting [17]). Moreover, the “Decrease Cell viability in A549 cell (%)” value in the series on A549 cells [2] is recorded as −1.97%. Further, the “induction … (SW054384 analogues)” value in [3] is “active in inducing the 15-PGDH-luciferase reporter”. The “lowering of PGE2 levels in media” value in the series with A549 cells [5] is reported as “show activity in lowering PGE2”. In addition, in the series on A549 cells [5], the “Decrease PGE-2 (IL-1beta-A549, %)” value stood at 31.90%.
For `COc1ccc(S(=O)(=O)N(CC(=O)Nc2cccnc2)c2cc(OC)ccc2OC)cc1` [SW202940], at 15-PGDH protein [7] (recombinant 15-PGDH in vitro, read-out: Enzyme inhibition (IC50)), the IC50 was around 5 µM. Moreover, the activation at […] in [1] (setting [12]) was 148%; in series [1] (setting [13]) it was 211%; in series [4] (setting [14]), 181%; in series [4] (setting [15]) it was 183%; in series [6] (setting [16]), 147%; in [6] (setting [17]), 181%. Besides, the “Decrease Cell viability in A549 cell (%)” value in the series with A549 cells [2] was 45.18%. The “induction … (SW054384 analogues)” value in series [3] is recorded as “active in inducing 15-PGDH-luciferase reporter activity”. In the series on A549 cells [5], the “Decrease PGE-2 (IL-1beta-A549, %)” value came to 80.46%.
As to `CCCCC[C@H](O)/C=C/[C@H]1[C@H](O)CC(=O)[C@@H]1C/C=C\CCCC(=O)O` [PGE2, prostaglandin E2], the “increase in bone marrow derived colonies relative to SW033291” value in series [11] is “lesser increase”.
For `COc1ccc(OC)c(N(CC(=O)N2CCOCC2)S(=O)(=O)c2ccccc2)c1` [SW125991], the activation at […] in [1] (setting [12]) was 67.3%; in series [1] (setting [13]) it was 83.3%; in series [4] (setting [14]), 161%; in series [4] (setting [15]) it was 149%; in series [6] (setting [16]) it was 77.4%; in series [6] (setting [17]), 74.6%. For the same molecule, the “toxicity by CellTiter-Glo” value with A549 cells [2] (24 hours) is listed as “no toxicity”. In addition, in the series on A549 cells [2], the “Decrease Cell viability in A549 cell (%)” value is listed as −2.13%. Further, in series [9], the metabolic stability entry is on record as “marked improvement in metabolic stability”. In addition, the half-life in [9] was 3.4 h. Moreover, in the series with A549 cells [5], the “lowering of PGE2 levels in media” value is listed as “show activity in lowering PGE2”. Moreover, the “Decrease PGE-2 (IL-1beta-A549, %)” value in the series with A549 cells [5] came to 31.33%.
`CCCCC(C)(C)[C@H](O)/C=C/[C@H]1[C@H](O)CC(=O)[C@@H]1C/C=C\CCCC(=O)O` [dmPGE2, 16,16-dimethyl PGE2]: the “increase in bone marrow derived colonies relative to SW033291” value in series [11] was “slightly greater increase”.
